# Assays:
# Format in all cases: ADME
# Cytochrome P450 3A4 = Cytochrome P450 3A4 (Homo sapiens, UniProt P08684); experiment: Drug metabolism in human liver microsomes assessed as CYP3A4-mediated (3R,3aS,4S,4aR,7R,8aR,9aR)-7-amino-4-((E)-2-(5-(3-fluorophenyl)pyridin-2-yl)vinyl)-3-methyldecahydronaphtho[2,3-c]furan-1(3H)-one formation at 25 uM after 120 mins by LC-MS/MS analysis; conditions: 2 h
# Cytochrome P450 2C8 = Cytochrome P450 2C8 (Homo sapiens, UniProt P10632); experiment: Activity of human recombinant CYP2C8 assessed as enzyme-mediated drug metabolism treated with 25 uM vorapaxar after 120 mins by LC-MS/MS analysis in presence of NADPH; conditions: 2 h
# Cytochrome P450 2D6 = Cytochrome P450 2D6 (Homo sapiens, UniProt P10635); experiment: Activity of human recombinant CYP2D6 assessed as enzyme-mediated drug metabolism treated with 25 uM vorapaxar after 120 mins by LC-MS/MS analysis in presence of NADPH; conditions: 2 h
# Liver microsome [1] = experiment: Drug metabolism in human liver microsomes assessed as (3R,3aS,4S,4aR,7R,8aR,9aR)-7-amino-4-((E)-2-(5-(3-fluorophenyl)pyridin-2-yl)vinyl)-3-methyldecahydronaphtho[2,3-c]furan-1(3H)-one formation at 10 to 25 uM after 120 mins by LC-MS/MS analysis in presence of omeprazole; conditions: 2 h
# Liver microsome [2] = experiment: Drug metabolism in human liver microsomes overexpressing CYP3A4 assessed as (3R,3aS,4S,4aR,7R,8aR,9aR)-7-amino-4-((E)-2-(5-(3-fluorophenyl)pyridin-2-yl)vinyl)-3-methyldecahydronaphtho[2,3-c]furan-1(3H)-one formation at 25 uM after 120 mins by LC-MS/MS analysis in presence of ketoconazole; conditions: 2 h
# Cytochrome P450 2J2 = target: T1, Cytochrome P450 2J2 (Homo sapiens, UniProt P51589); experiment: Drug metabolism assessed as human recombinant CYP2J2-mediated 2-hydroxyethyl (1R,3aR,4aR,6R,8aR,9S,9aS)-9-((E)-2-(5-(3-fluorophenyl)pyridin-2-yl)vinyl)-1-methyl-3-oxododecahydronaphtho[2,3-c]furan-6-ylcarbamate formation at 25 uM after 120 mins by LC-MS/MS analysis in presence of astemizole; conditions: recombinant enzyme, 2 h
# T1 sequence (P51589 whole entry): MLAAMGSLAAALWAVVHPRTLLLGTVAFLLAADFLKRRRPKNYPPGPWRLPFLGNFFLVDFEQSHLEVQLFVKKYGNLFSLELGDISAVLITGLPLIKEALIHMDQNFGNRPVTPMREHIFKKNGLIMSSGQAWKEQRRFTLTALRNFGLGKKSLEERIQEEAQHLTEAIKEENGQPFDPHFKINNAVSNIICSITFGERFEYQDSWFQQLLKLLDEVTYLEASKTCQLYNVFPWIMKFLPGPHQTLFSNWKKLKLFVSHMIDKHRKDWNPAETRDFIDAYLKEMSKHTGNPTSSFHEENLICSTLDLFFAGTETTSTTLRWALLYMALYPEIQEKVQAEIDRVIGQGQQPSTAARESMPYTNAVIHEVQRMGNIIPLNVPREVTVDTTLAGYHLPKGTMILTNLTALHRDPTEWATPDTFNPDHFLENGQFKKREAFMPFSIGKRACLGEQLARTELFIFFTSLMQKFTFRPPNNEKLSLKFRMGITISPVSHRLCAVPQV
# Cytochrome P450 2C9 [3] = target: T2, Cytochrome P450 2C9 (Homo sapiens, UniProt P11712); experiment: Activity of human recombinant CYP2C9 assessed as enzyme-mediated 2-hydroxyethyl (1R,3aR,4aR,6R,8aR,9S,9aS)-9-((E)-2-(5-(3-fluorophenyl)pyridin-2-yl)vinyl)-1-methyl-3-oxododecahydronaphtho[2,3-c]furan-6-ylcarbamate formation at 25 uM after 120 mins by LC-MS/MS analysis in presence of NADPH; conditions: 2 h
# Cytochrome P450 4F2 = Cytochrome P450 4F2 (Homo sapiens, UniProt P78329); experiment: Activity of human recombinant CYP4F2 assessed as enzyme-mediated 2-hydroxyethyl (1R,3aR,4aR,6R,8aR,9S,9aS)-9-((E)-2-(5-(3-fluorophenyl)pyridin-2-yl)vinyl)-1-methyl-3-oxododecahydronaphtho[2,3-c]furan-6-ylcarbamate formation at 25 uM after 120 mins by LC-MS/MS analysis in presence of NADPH; conditions: 2 h
# Cytochrome P450 2C9 [4] = target: T2, Cytochrome P450 2C9; experiment: Activity of human recombinant CYP2C9 assessed as enzyme-mediated drug metabolism at 10 uM after 120 mins by LC-MS/MS analysis; conditions: 2 h
# Cytochrome P450 2C19 = Cytochrome P450 2C19 (Homo sapiens, UniProt P33261); experiment: Activity of human recombinant CYP2C19 assessed as enzyme-mediated drug metabolism at 10 uM after 120 mins by LC-MS/MS analysis; conditions: 2 h
# Liver microsome [5] = experiment: Intrinsic clearance in human liver microsomes assessed as (3R,3aS,4S,4aR,7R,8aR,9aR)-7-amino-4-((E)-2-(5-(3-fluorophenyl)pyridin-2-yl)vinyl)-3-methyldecahydronaphtho[2,3-c]furan-1(3H)-one formation by measuring Vmax/Km per nmol of enzyme after 120 mins by LC-MS/MS analysis; conditions: 2 h
# T2 sequence (P11712 whole entry): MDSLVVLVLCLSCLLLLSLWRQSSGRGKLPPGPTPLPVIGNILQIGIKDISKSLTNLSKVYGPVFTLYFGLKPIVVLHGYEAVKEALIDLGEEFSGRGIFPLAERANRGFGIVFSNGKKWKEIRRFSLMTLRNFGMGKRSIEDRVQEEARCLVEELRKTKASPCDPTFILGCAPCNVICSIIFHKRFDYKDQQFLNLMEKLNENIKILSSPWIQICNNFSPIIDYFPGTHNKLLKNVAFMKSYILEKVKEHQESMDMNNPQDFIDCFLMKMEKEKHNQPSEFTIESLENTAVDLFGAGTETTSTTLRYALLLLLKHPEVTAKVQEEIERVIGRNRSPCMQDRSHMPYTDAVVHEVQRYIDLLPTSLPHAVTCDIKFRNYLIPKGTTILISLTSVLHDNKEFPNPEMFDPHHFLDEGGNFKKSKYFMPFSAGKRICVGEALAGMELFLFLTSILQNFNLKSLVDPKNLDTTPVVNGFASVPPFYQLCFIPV
# Cytochrome P450 2C8, sequence (P10632 whole entry): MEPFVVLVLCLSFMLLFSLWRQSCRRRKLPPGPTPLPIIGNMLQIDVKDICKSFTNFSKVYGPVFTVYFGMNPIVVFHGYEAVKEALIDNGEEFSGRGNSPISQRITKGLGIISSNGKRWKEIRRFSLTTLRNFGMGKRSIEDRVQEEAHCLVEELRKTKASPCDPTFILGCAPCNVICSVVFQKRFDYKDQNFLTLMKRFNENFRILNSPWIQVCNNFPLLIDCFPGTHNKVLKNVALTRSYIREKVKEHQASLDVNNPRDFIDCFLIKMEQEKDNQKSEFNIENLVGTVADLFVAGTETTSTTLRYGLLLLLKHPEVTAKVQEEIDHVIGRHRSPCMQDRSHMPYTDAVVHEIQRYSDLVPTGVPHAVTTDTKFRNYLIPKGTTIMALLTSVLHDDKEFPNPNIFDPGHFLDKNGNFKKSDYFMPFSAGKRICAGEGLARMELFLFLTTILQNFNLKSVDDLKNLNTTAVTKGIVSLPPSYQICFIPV
# Cytochrome P450 3A4, sequence (P08684 whole entry): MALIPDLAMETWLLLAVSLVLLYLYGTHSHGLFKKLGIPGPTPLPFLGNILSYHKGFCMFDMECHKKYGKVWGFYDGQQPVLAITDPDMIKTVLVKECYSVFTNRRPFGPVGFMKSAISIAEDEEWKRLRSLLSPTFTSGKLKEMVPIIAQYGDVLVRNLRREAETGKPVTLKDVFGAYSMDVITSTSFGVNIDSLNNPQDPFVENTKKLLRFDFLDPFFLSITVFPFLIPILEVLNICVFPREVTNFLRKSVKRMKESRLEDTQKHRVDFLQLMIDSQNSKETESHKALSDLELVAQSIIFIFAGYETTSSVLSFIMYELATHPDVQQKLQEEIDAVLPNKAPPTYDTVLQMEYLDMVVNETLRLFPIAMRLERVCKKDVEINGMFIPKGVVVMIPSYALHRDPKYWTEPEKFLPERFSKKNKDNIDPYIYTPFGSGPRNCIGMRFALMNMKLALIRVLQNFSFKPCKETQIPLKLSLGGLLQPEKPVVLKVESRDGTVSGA
# Cytochrome P450 2C19, sequence (P33261 whole entry): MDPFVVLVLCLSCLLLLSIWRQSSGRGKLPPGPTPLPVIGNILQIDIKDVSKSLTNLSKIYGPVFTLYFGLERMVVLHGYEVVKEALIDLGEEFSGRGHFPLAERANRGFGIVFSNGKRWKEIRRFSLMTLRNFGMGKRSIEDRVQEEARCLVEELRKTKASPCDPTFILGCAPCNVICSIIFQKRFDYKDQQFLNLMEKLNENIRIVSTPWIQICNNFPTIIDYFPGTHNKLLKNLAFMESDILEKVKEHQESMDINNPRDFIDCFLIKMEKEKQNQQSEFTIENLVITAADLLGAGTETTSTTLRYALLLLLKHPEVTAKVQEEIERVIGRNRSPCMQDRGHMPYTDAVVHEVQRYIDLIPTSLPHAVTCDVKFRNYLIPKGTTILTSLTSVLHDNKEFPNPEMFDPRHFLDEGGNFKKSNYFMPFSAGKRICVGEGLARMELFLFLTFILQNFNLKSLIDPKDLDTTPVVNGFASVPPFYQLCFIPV
# Cytochrome P450 2D6, sequence (P10635 whole entry): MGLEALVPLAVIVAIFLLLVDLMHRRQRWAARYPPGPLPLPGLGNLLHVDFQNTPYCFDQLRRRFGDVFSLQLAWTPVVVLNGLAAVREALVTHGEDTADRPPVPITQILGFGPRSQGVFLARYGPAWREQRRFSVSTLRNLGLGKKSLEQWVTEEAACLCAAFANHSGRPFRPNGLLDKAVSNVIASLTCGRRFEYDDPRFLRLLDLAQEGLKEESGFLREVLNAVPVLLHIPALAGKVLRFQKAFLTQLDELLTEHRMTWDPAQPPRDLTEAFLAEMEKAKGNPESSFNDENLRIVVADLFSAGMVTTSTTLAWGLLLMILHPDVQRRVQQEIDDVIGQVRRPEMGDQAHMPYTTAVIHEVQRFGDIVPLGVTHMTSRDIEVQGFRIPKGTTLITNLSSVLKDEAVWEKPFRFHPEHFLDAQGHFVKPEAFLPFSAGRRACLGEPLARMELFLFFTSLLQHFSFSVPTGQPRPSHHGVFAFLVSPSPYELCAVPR
# Cytochrome P450 4F2, sequence (P78329 whole entry): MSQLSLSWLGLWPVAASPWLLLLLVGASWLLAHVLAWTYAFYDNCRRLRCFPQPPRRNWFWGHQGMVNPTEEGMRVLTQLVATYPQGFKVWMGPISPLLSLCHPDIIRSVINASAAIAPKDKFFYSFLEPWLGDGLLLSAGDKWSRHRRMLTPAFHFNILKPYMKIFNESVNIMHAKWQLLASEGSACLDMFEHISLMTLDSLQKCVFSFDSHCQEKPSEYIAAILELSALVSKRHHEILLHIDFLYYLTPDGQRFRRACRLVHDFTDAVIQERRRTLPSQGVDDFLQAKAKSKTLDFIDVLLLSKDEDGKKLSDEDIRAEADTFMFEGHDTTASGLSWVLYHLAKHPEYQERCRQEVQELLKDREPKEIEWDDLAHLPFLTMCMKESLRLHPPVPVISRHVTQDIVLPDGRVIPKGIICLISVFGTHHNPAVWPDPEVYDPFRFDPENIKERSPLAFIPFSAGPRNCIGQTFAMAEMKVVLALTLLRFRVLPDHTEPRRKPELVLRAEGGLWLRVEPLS
smiles,measurement,setting,value
C[C@H]1OC(=O)[C@@H]2C[C@@H]3C[C@H](NC(=O)OCCO)CC[C@H]3[C@H](/C=C/c3ccc(-c4cccc(F)c4)cn3)[C@H]12,Drug metabolism,Cytochrome P450 3A4,metabolite_detected
same,Drug metabolism,Cytochrome P450 2C8,metabolite_detected
same,Drug metabolism,Cytochrome P450 2D6,metabolite_detected
CCOC(=O)N[C@@H]1CC[C@@H]2[C@@H](C1)C[C@H]1C(=O)O[C@H](C)[C@H]1[C@H]2/C=C/c1ccc(-c2cccc(F)c2)cn1 [VORAPAXAR],Drug metabolism,Liver microsome [1],metabolite_detected
same,Drug metabolism,Liver microsome [2],metabolite_not_detected
same,Drug metabolism,Cytochrome P450 2J2,metabolite_not_detected
CCOC(=O)N[C@@H]1CC[C@@H]2[C@@H](C1)C[C@H]1C(=O)O[C@H](C)[C@H]1[C@H]2/C=[14CH]/c1ccc(-c2cccc(F)c2)cn1,Drug metabolism,Cytochrome P450 2C9 [3],metabolite_detected
same,Drug metabolism,Cytochrome P450 4F2,metabolite_detected
same,Drug metabolism,Cytochrome P450 2C9 [4],metabolite_not_detected
same,Drug metabolism,Cytochrome P450 2C19,metabolite_not_detected
same,CLH,Liver microsome [5],2.46 µL/min

# Reference: ChEMBL document CHEMBL3526033, “Identification of human liver cytochrome P450 enzymes involved in the metabolism of SCH 530348 (Vorapaxar), a potent oral thrombin protease-activated receptor 1 antagonist” (Drug Metab Dispos, 2011)
